Results on 15 compounds are retold here after patent publication US12590062B2, “PD-1/PD-L1 inhibitors” (Gilead Sciences, Inc., priority 2017, dated 2026).

Assay [1] deals with T1, interaction between the recombinant extracellular domain (ECD) of PD-1 and native cell-bound PD-L1 (Homo sapiens, UniProt Q9NZQ7).
T1 construct: expressed in transfected cells
The assay can be described thus: CHO/PD-L1 cell capture assay. It counts as cell-based. Particulars: CHO cells overexpressing PD-L1, pre-incubated 1 hr with compound, captured on biotinylated Fc-PD-1 coated plates, 75 min at room temperature. Summed up: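 EC50 values came from four-parameter fits of counts of Draq5-stained CHO-PD-L1 cells retained on plate-bound biotinylated Fc-PD-1 ECD, enumerated by high-content imaging. Cells in PBS pH 7.4 with EDTA and 2% BSA had 1 hr compound pre-incubation, then 75 min capture at room temperature.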

The target in the next assay is T2, PD-1/PD-L1 interaction (Homo sapiens, UniProt Q9NZQ7).
T2 construct: expressed in transfected cells; host or cells: CHO cells (aAPC-PD-L1) co-cultured with Jurkat cells overexpressing PD-1 and an NFAT-luciferase reporter
T2 sequence (Q9NZQ7 19-290): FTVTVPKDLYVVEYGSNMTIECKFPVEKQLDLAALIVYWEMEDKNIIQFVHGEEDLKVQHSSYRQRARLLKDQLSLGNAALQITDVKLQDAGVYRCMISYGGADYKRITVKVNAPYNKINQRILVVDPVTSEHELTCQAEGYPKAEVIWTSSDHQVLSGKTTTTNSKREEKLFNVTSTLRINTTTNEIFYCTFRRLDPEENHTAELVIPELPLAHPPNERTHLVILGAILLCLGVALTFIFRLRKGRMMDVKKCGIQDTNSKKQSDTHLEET
The assay can be described thus: PD-1/PD-L1 NFAT reporter co-culture assay. It is filed as cell-based. Conditions: Jurkat PD-1 NFAT-luciferase cells co-cultured with aAPC-PD-L1 CHO cells, 6 hrs at 37° C.; read-out: EC50 NFAT Luciferase. Summed up: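 Compounds are scored by restoration of NFAT-luciferase signal in PD-1-expressing Jurkat cells cultured 6 h at 37 °C on CHO cells presenting anti-CD3 and PD-L1; EC50 values derive from four-parameter curve fitting.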

A further assay has as its target T3, PD-L1 (Homo sapiens, UniProt Q9NZQ7).
T3 construct: determine if they can specifically dimerize the extracellular domains of PD-L1
The experiment in a line: PD-L1/PD-L1 dimerization biochemical protein-protein interaction assay (ALPHA). Conditions: compound-induced PD-L1 dimerization, head prints '1 nM' (0.5 nM His-tagged PD-L1 and 0.5 nM FLAG-tagged PD-L1), read-out: AC50 PDL1 Dimer Alpha 1 nM. It counts as binding. Summed up: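 After 2 h at 25 °C with compound, His- and FLAG-tagged PD-L1 ECDs (each 0.5 nM final; 25 mM Hepes pH 7.4, 150 mM NaCl) were detected by sequential anti-His acceptor and anti-FLAG donor bead incubations. Dose-response curves fitted to four-parameter equation for AC50.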

T1 sequence (Q9NZQ7 19-290): as above
T3 sequence (Q9NZQ7 19-238 limits assumed): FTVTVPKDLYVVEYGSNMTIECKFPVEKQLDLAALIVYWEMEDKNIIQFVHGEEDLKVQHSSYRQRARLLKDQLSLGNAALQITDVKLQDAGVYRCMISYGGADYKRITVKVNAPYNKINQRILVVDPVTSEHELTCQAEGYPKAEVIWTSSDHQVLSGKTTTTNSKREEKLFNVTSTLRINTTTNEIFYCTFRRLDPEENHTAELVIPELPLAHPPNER
T3 sequence (Q9NZQ7 19-238 limits assumed): as above

For orientation: EC50 means the concentration giving half of the maximal effect. Usually AC50 stands for the midpoint of the concentration-response curve, whichever way the signal moves. As to `COc1nc(OCc2cccc(-c3cccc(COc4nc(OC)c(CN5CCC[C@H]5C(=O)O)cc4Cl)c3C)c2C)c(Cl)cc1CN1CCC[C@H]1C(=O)O` [Example 232, (2′S)-(((((2,2′-dimethyl-[1,1′-biphenyl]-3,3′-diyl)bis(methylene))bis(oxy))bis(5-chloro-2-methoxypyridine-6,3-diyl))bis(methylene))di-L-proline], the EC50 is 142 nM in assay [1] and 331 nM on PD-1/PD-L1 interaction. The AC50 on PD-L1 worked out at 314 nM.

For the compound `Cc1c(COc2nc(OCCc3cncnc3)c(CNCC(=O)O)cc2Cl)cccc1-c1cccc(COc2nc(OCCc3cncnc3)c(CNCC(=O)O)cc2Cl)c1C` [Example 133, 2,2′-((((((2,2′-dimethyl-[1,1′-biphenyl]-3,3′-diyl)bis(methylene))bis(oxy))bis(5-chloro-2-(2-(pyrimidin-5-yl)ethoxy)pyridine-6,3-diyl))bis(methylene))bis(azanediyl))diacetic acid], the EC50 in assay [1] turned out to be 129 nM; on PD-1/PD-L1 interaction, 288 nM. The AC50 at PD-L1 stood at 282 nM.

For `Cc1c(COc2cc(OCc3cncc(C#N)c3)c(CNC[C@@H](O)CC(=O)O)cc2Cl)cccc1-c1cccc(OCc2ccc(CNC[C@@H](O)CC(=O)O)cc2)c1C` [Example 279, (S)-4-((4-(((3′-((4-((((S)-3-carboxy-2-hydroxypropyl)amino)methyl)-2-chloro-5-((5-cyanopyridin-3-yl)methoxy)phenoxy)methyl)-2,2′-dimethyl-[1,1′-biphenyl]-3-yl)oxy)methyl)benzyl)amino)-3-hydroxybutanoic acid], the EC50 worked out at 27.7 nM in assay [1] and 260 nM at PD-1/PD-L1 interaction. Besides, the AC50 on PD-L1 amounted to 109 nM.

For the compound `Cc1c(COc2cc(OCc3cncc(C#N)c3)c(CNC[C@@H](O)CC(=O)O)cc2Cl)cccc1-c1cccc(-c2ccc(OCCNC[C@@H](O)CC(=O)O)c([N+](=O)[O-])c2)c1C` [Example 92, (S)-4-((4-((4″-(2-(((S)-3-carboxy-2-hydroxypropyl)amino)ethoxy)-2,2′-dimethyl-3″-nitro-[1,1′:3′,1″-terphenyl]-3-yl)methoxy)-5-chloro-2-((5-cyanopyridin-3-yl)methoxy)benzyl)amino)-3-hydroxybutanoic acid], the figures for the EC50 (in assay [1]; at PD-1/PD-L1 interaction) were 25.9 nM and 63 nM, respectively. The AC50 at PD-L1 was determined as 170 nM.

Regarding `Cc1c(COc2cc(OCc3cncc(C#N)c3)c(CNC(CO)(CO)CO)cc2Cl)cccc1-c1cccc(COc2cc(OCc3cncc(C#N)c3)c(CNC(CO)(CO)CO)cc2Cl)c1C` [Example 282, 5,5′-((((((2,2′-dimethyl-[1,1′-biphenyl]-3,3′-diyl)bis(methylene))bis(oxy))bis(4-chloro-6-(((1,3-dihydroxy-2-(hydroxymethyl)propan-2-yl)amino)methyl)-3,1-phenylene))bis(oxy))bis(methylene))dinicotinonitrile], the values for the EC50 (in assay [1]; at PD-1/PD-L1 interaction) were 254 nM and 463 nM, respectively. Also, at PD-L1, the AC50 worked out at 327 nM.

Regarding `Cc1c(COc2cc(OCc3cncc(C#N)c3)c(CNC[C@@H](O)CC(=O)O)cc2Cl)cccc1-c1cccc(-c2ccc3c(cnn3CCNC[C@@H](O)CC(=O)O)c2)c1C` [Example 209, (S)-4-((4-((3′-(1-(2-(((S)-3-carboxy-2-hydroxypropyl)amino)ethyl)-1H-indazol-5-yl)-2,2′-dimethyl-[1,1′-biphenyl]-3-yl)methoxy)-5-chloro-2-((5-cyanopyridin-3-yl)methoxy)benzyl)amino)-3-hydroxybutanoic acid], the EC50 in assay [1] worked out at 13.1 nM; at PD-1/PD-L1 interaction, 73 nM. Also, the AC50 at PD-L1 worked out at 70.5 nM.

As to `COc1nc(OCc2cccc(-c3cccc(-c4ccc(OCCNC[C@H](O)CC(=O)O)cc4)c3C)c2C)c(Cl)cc1CNC[C@H](O)CC(=O)O` [Example 110, (R)-4-(((6-((4″-(2-(((R)-3-carboxy-2-hydroxypropyl)amino)ethoxy)-2,2′-dimethyl-[1,1′:3′,1″-terphenyl]-3-yl)methoxy)-5-chloro-2-methoxypyridin-3-yl)methyl)amino)-3-hydroxybutanoic acid], the figures for the EC50 (in assay [1]; on PD-1/PD-L1 interaction) were 6.5 nM and 354 nM, respectively. Moreover, the AC50 at PD-L1 worked out at 194 nM.

`COc1nc(OCc2cccc(-c3cccc(COc4nc(OC)c(CN[C@](C)(CO)C(=O)O)cc4Cl)c3C)c2C)c(Cl)cc1CN[C@](C)(CO)C(=O)O` [Example 43, (2R,2′R)-2,2′-((((((2,2′-dimethyl-[1,1′-biphenyl]-3,3′-diyl)bis(methylene))bis(oxy))bis(5-chloro-2-methoxypyridine-6,3-diyl))bis(methylene))bis(azanediyl))bis(3-hydroxy-2-methylpropanoic acid)]: the EC50 in assay [1] was determined as 65.2 nM; at PD-1/PD-L1 interaction, 79 nM. Moreover, the AC50 on PD-L1 was not below 10000 nM.

In the case of `COc1nc(OCc2cccc(-c3cccc(COc4nc(OC)c(CN(CCCC(N)=O)CC(=O)O)cc4Br)c3C)c2C)c(Br)cc1CN(CCCC(N)=O)CC(=O)O` [Example 117, 2,2′-((((((2,2′-dimethyl-[1,1′-biphenyl]-3,3′-diyl)bis(methylene))bis(oxy))bis(5-bromo-2-methoxypyridine-6,3-diyl))bis(methylene))bis((4-amino-4-oxobutyl)azanediyl))diacetic acid], the EC50 in assay [1] amounted to 158 nM; at PD-1/PD-L1 interaction it was 779 nM. For the same compound, the AC50 on PD-L1 stood at 361 nM.

Take `COc1nc(OCc2cccc(-c3cccc(COc4nc(OC)c(CNCCC(=O)O)cc4Cl)c3C)c2C)c(Cl)cc1CNCCC(=O)O` [Example 172, 3,3′-((((((2,2′-dimethyl-[1,1′-biphenyl]-3,3′-diyl)bis(methylene))bis(oxy))bis(5-chloro-2-methoxypyridine-6,3-diyl))bis(methylene))bis(azanediyl))dipropionic acid]: the EC50 in assay [1] turned out to be 50.6 nM; on PD-1/PD-L1 interaction it was 139 nM. Moreover, the AC50 on PD-L1 was not below 10000 nM.

For the compound `COc1nc(OCc2cccc(-c3cccc(COc4nc(OC)c(CN[C@@H](C)CC(=O)O)cc4Cl)c3C)c2C)c(Cl)cc1CN[C@@H](C)CC(=O)O` [Example 74, (3S,3′S)-3,3′-((((((2,2′-dimethyl-[1,1′-biphenyl]-3,3′-diyl)bis(methylene))bis(oxy))bis(5-chloro-2-methoxypyridine-6,3-diyl))bis(methylene))bis(azanediyl))dibutyric acid], the values for the EC50 (in assay [1]; on PD-1/PD-L1 interaction) were 176 nM and 138 nM, respectively. Further, the AC50 on PD-L1 was not below 10000 nM.

Turning to `Cc1c(COc2nc(OCc3cc(C#N)cc(C#N)c3)c(CN[C@@H](CO)C(=O)O)cc2Cl)cccc1-c1cccc(COc2nc(OCc3cc(C#N)cc(C#N)c3)c(CN[C@@H](CO)C(=O)O)cc2Cl)c1C` [Example 124, (2S,2′S)-2,2′-((((((2,2′-dimethyl-[1,1′-biphenyl]-3,3′-diyl)bis(methylene))bis(oxy))bis(5-chloro-2-((3,5-dicyanobenzyl)oxy)pyridine-6,3-diyl))bis(methylene))bis(azanediyl))bis(3-hydroxypropanoic acid)], the concentration giving a half-maximal response (EC50) in assay [1] came to 147 nM; on PD-1/PD-L1 interaction, 74 nM. Further, the AC50 at PD-L1 was not below 10000 nM.

For the compound `Cc1c(COc2nc(OCCC(N)=O)c(CNCC(=O)O)cc2Cl)cccc1-c1cccc(COc2nc(OCCC(N)=O)c(CNCC(=O)O)cc2Cl)c1C` [Example 146, 2,2′-((((((2,2′-dimethyl-[1,1′-biphenyl]-3,3′-diyl)bis(methylene))bis(oxy))bis(2-(3-amino-3-oxopropoxy)-5-chloropyridine-6,3-diyl))bis(methylene))bis(azanediyl))diacetic acid], the EC50 in assay [1] turned out to be 184 nM; at PD-1/PD-L1 interaction, 2300 nM. The AC50 at PD-L1 turned out to be 334 nM.

Take `COc1nc(OCc2cccc(-c3cccc(COc4nc(OC)c(CNC5(C(=O)O)CC5)cc4Cl)c3C)c2C)c(Cl)cc1CNC1(C(=O)O)CC1` [Example 91, 1,1′-((((((2,2′-dimethyl-[1,1′-biphenyl]-3,3′-diyl)bis(methylene))bis(oxy))bis(5-chloro-2-methoxypyridine-6,3-diyl))bis(methylene))bis(azanediyl))bis(cyclopropane-1-carboxylicacid)]: the results for the EC50 (in assay [1]; at PD-1/PD-L1 interaction) were 196 nM and 523 nM, respectively. The AC50 at PD-L1 was not below 10000 nM.

For the compound `Cc1c(COc2cc(OCc3cncc(C#N)c3)c(CN[C@@H](C)C(=O)O)cc2Cl)cccc1-c1cccc(-c2ccc(OCCN[C@@H](C)C(=O)O)c([N+](=O)[O-])c2)c1C` [Example 93, (4-((4″-(2-(((S)-1-carboxyethyl)amino)ethoxy)-2,2′-dimethyl-3″-nitro-[1,1′:3′,1″-terphenyl]-3-yl)methoxy)-5-chloro-2-((5-cyanopyridin-3-yl)methoxy)benzyl)-L-alanine], the EC50 in assay [1] stood at 44.4 nM; on PD-1/PD-L1 interaction, 127 nM. The AC50 on PD-L1 stood at 145 nM.
